From US20180055844A1 (Celgene Corporation, priority 2011, published 2018)
Values joined by “and” are separate entries in the source; they are usually repeats but may differ in a detail not shown here. Identical values can stand only once. “Also recorded” adds a separate entry of the source. Like-named read-outs stand apart in the source and are kept apart here.

Key:
human umbilical artery = assay: Human umbilical artery angiogenesis assay; type: cell-based
B cell = B cell proliferation; type: cell-based
blood vessel growth = assay: Mouse Matrigel angiogenesis assay; type: in vivo; settings: 30 mpk
WSU-DLCL2 xenograft = WSU-DLCL2 xenograft model; type: in vivo; settings: combination with Rituxan (2 mg/kg iv qw)
U87 GB xenograft = U87 GB xenograft model; type: in vivo; settings: 3 and 30 mg/kg qd
Karpas-1106P = assay: 5 day 3H thymidine incorporation assay; type: cell-based; settings: Homo sapiens, PMBL
Excerpt: (§1) Results of 3 independent experiments are shown (mean±SD) in FIG. 2. […] ABC-subtype cells appear more sensitive to the antiproliferative effect than other subtype cells including GCB-DLBCL and PMBL cells.

OCI-Ly10 = assay: 5 day 3H thymidine incorporation assay; type: cell-based; settings: Homo sapiens; OCI-Ly10, ABC subtype
Excerpt: as §1

OCI-Ly19 = assay: 5 day 3H thymidine incorporation assay; type: cell-based; settings: Homo sapiens; OCI-Ly19, GCB subtype
Excerpt: as §1

RIVA = assay: 5 day 3H thymidine incorporation assay; type: cell-based; settings: ABC subtype
Excerpt: as §1

SUDHL4 = assay: 5 day 3H thymidine incorporation assay; type: cell-based; settings: Homo sapiens, SU-DHL-4; SUDHL4, GCB subtype
Excerpt: as §1

TMD8 = assay: 5 day 3H thymidine incorporation assay; type: cell-based; settings: Homo sapiens; TMD8, ABC subtype
Excerpt: as §1

U2932 = assay: 5 day 3H thymidine incorporation assay; type: cell-based; settings: Homo sapiens; U2932, ABC subtype
Excerpt: as §1

WSU-DLCL2 = assay: 5 day 3H thymidine incorporation assay; type: cell-based; settings: Homo sapiens, WSUDLCL2; WSU-DLCL2, GCB subtype
Excerpt: as §1

1051 = assay: Activity against lenalidomide resistant cell lines; type: cell-based; settings: 1051, n = 3; read-out: IC50
Procedure: (§2) The ability of compounds to effect the proliferation of MM cell lines was investigated in an in vitro study. Uptake of [^3H]-thymidine by H929 MM cells and 7-AAD uptake in several MM cell lines (H929, U266B1, Anbl-6, KMS-34, OPM-2, DF-15, DF15/R, CAG, MM1.S and LP-1) was measured as an indicator of cell proliferation. Cells were incubated in the presence of compounds for 72 hours ([^3H]-thymidine was included for the last 6 hours of the incubation period) or 5 days followed by 7-AAD uptake to measure and count viable cells.

1052 = assay: Activity against lenalidomide resistant cell lines; type: cell-based; settings: 1052, n = 3; read-out: IC50
Procedure: as §2

1053 = assay: Activity against lenalidomide resistant cell lines; type: cell-based; settings: 1053, n = 3; read-out: IC50
Procedure: as §2

1054 = assay: Activity against lenalidomide resistant cell lines; type: cell-based; settings: 1054, n = 3; read-out: IC50
Procedure: as §2

D1 = assay: Activity against lenalidomide resistant cell lines; type: cell-based; settings: D1, n = 3; read-out: IC50
Procedure: as §2

H929 = assay: Activity against lenalidomide resistant cell lines; type: cell-based; settings: Homo sapiens, NCI-H929; H929, n = 3
Procedure: as §2

[1] = PK profiles in male monkeys; type: in vivo, monkey; settings: for AUC(0-t) / Cmax: monkey, in vivo, po, male monkeys
NFκB p65 and p50 = assay: NFκB activity in DLBCL cells (Active Motif transcription factor assay); type: cell-based; settings: 0.1 μM, 1 μM and 10 μM, 2 days
Excerpt: NF-κB activity was examined with Active Motif transcription factor assay using nuclear extracts from cells following treatment.

pRb, IRF4 = assay: Western blot of cell cycle regulators in H929 cells; type: cell-based
[2] = system: MM cell lines U266, 100-1 and 1K-2; assay: Proliferation of CRBN-sensitive MM cell lines; type: cell-based
HepG2 = assay: Invasion of solid tumor cells; type: cell-based; settings: Homo sapiens; HepG2 (VEGF), hepatocellular
SF-539 = assay: Invasion of solid tumor cells; type: cell-based; settings: Homo sapiens; SF-539 (PDGF), glioblastoma
U251 = assay: Invasion of solid tumor cells; type: cell-based; settings: Homo sapiens, U-251; U251 (PDGF), glioblastoma
HCT116 = assay: Solid tumor cell colony formation; type: cell-based; settings: Homo sapiens, HCT-116
OVCAR-3 = assay: Solid tumor cell colony formation; type: cell-based; settings: Homo sapiens
SK-HEP-1 = assay: Solid tumor cell colony formation; type: cell-based; settings: Homo sapiens, SK-HEP1
U87 = assay: Solid tumor cell colony formation; type: cell-based; settings: Homo sapiens, U-87 MG
MDA-MB-453 = assay: Solid tumor cell colony formation; type: cell-based; settings: Homo sapiens
PC-3 = assay: Solid tumor cell colony formation; type: cell-based; settings: Homo sapiens
[3] = system: lipopolysaccharide-stimulated human peripheral blood mononuclear cells (hPBMCs); assay: PBMC cytokine profiling; type: cell-based; settings: for IC50: LPS-stimulated hPBMC
HUVEC = HUVEC tube formation; type: cell-based, human

In the case of Cc1nc2cccc(N)c2c(=O)n1C1CCC(=O)NC1=O (centres unmarked) [compound of Formula I, 3-(5-amino-2-methyl-4-oxo-4H-quinazolin-3-yl)-piperidine-2,6-dione], the IC50 (human umbilical artery; read-out: Human angiogenesis IC50) is reported as 9.4 nM, the IC50 (human umbilical artery; read-out: anti-angiogenic IC50, human umbilical artery assay) is reported as 9.4 nM and the EC50 (B cell) is reported as 15 nM. For the same compound, the blood vessel growth (blood vessel growth) was “significantly inhibited”, the “complete regressions (tumor volume<25 mm^3)” value (WSU-DLCL2 xenograft; 3 mg) was 60% and the “complete regressions (tumor volume<25 mm^3)” value (WSU-DLCL2 xenograft; 30 mg) was 90%. The U87 tumor growth (U87 GB xenograft) was “significantly inhibited; also recorded: inhibits”, the IC50 (Karpas-1106P) was 580 to 710 nM and the IC50 (OCI-Ly10) was 8.5 nM. It also gave an IC50 (OCI-Ly19) of over 10000 nM, an IC50 (RIVA) of 4300 nM and an IC50 (SUDHL4) of over 10000 nM. The IC50 (TMD8) was 440 nM, the IC50 (U2932) was 110 to 120 nM and the IC50 (WSU-DLCL2) was 790 to 2100 nM. For the same compound, the IC50 1051 was 2970 nM, the IC50 1052 was 4240 nM and the IC50 1053 was 2100 nM. The IC50 1054 was 6590 nM, the IC50 (D1) was 309 nM and the IC50 (H929) was 154 nM. The AUC(0-t) ([1]; 0.3 mg/kg) was 1300 ng·h/mL and 4.5 µM·h, the Cmax ([1]; 0.3 mg/kg) was 100 ng/mL and 360 nM and the AUC(0-t) ([1]; 3 mg/kg) was 14000 ng·h/mL and 49 µM·h. The Cmax ([1]; 3 mg/kg) was 1100 ng/mL and 3.8 µM, the AUC(0-t) ([1]; 10 mg/kg) was 38000 ng·h/mL and 130 µM·h and the Cmax ([1]; 10 mg/kg) was 3100 ng/mL and 11 µM. The AUC(0-t) ([1]; 30 mg/kg) was 99000 ng·h/mL and 350 µM·h, the Cmax ([1]; 30 mg/kg) was 7700 ng/mL and 27 µM and the “Exposures (AUC(0-t)) versus dose” value ([1]; up to 30 mg/kg, male monkey) was “increased in a dose proportional manner”. For the same compound, the “NFκB p65 and p50 activity” value (NFκB p65 and p50) was “significantly inhibits”, the “phosphorylation of pRB” value (pRb, IRF4) was “decreased” and the “total level of protein IRF4” value (pRb, IRF4) was “decreased”. For the same compound, the “proliferation of CRBN-sensitive MM cell lines U266, 100-1 and 1K-2” value [2] was “inhibit the proliferation”, the IC50 (HepG2) was under 1 nM and the IC50 (SF-539) was 25 nM. It also gave an IC50 (U251) of 3700 nM, an inhibition at 10 µM (HCT116) of 13% and an inhibition at 10 µM (OVCAR-3) of 18%. For the same compound, the inhibition at 10 µM (SK-HEP-1) was 6%, the inhibition at 10 µM (U87) was 2% and the inhibition at 10 µM (MDA-MB-453) was -7%. The inhibition at 10 µM (PC-3) was 14.8%, the activity at 0.1 µM ([3]; read-out: IL-10 production, mean percent of control) was 480% and the activity at 0.1 µM ([3]; read-out: MCP-1 production, mean percent of control) was 236%. For the same compound, the activity at 0.1 µM ([3]; read-out: RANTES production, mean percent of control) was 131%, the IC50 ([3]; read-out: IL-8 production IC50) was over 10000 nM and the IC50 ([3]; read-out: MIP-1α production IC50) was 300 nM. For the same compound, the IC50 ([3]; read-out: MIP-1β production IC50) was over 10000 nM and the “VEGF and bFGF-induced HUVEC tube formation and migration” value (HUVEC) was “weakly inhibited”.
